Reference: BindingDB's records for doi:10.1021/jm011053+ (Institut De Chimie Pharmaceutique Albert Lespagnol, 2002)

Assay: Inhibition of 2-[125I]iodomelatonin binding to Melatonin receptor 3 (MT3) of Syrian hamster brain membrane

`COc1ccc2[nH]cc(CCNC(C)=O)c2c1[N+](=O)[O-]` [N-(2-(5-methoxy-4-nitro-1H-indol-3-yl)ethyl)acetamide] showed a Ki of 1.1 nM.
`COc1ccc2c(c1)c(CCNC(C)=O)cn2C` [N-[2-(5-Methoxy-1-methyl-1H-indol-3-yl)-ethyl]-acetamide] showed a Ki of 2.8 nM.
With `COc1ccc2c(c(CCNC(C)=O)cn2C)c1[N+](=O)[O-]` [N-[2-(5-Methoxy-1-methyl-4-nitro-1H-indol-3-yl)-ethyl]-acetamide] the Ki was 0.31 nM.
